Measured values from patent US6573269B1, “Pyrimidine-2,4,6-trione light screening compositions” (Roche Vitamins Inc., priority 1999, dated 2003).

What was measured:
Type in all cases: physicochemical
[1] = UV absorption (UV-A filter property); conditions: for UV extinction (ε) at absorption maximum: value in brackets after the UV maximum
From the text: The compounds of formula I have adsorption maxima in the range of 320 nm to 400 nm, the so called UV-A radiation.

[2] = Measurement of solubility in cosmetic solvents Cétiol LC and Crodamol DA; conditions: oversaturated solution, overnight at 25° C., filtered, UV measurement in CH2Cl2
Description: e) Measurement of solubility in Cétiol LC (cocoyl caprylate caprate) and Crodamol DA (diisopropyl adipate).
After standing overnight at 25° C., the solution was filtered through a microfilter (Millipore, pore size 0.5 , μm), followed by UV measurement in CH2Cl2. The extinctions were compared with the extinctions of the pure compound.

[3] = Photostability: irradiation in high dilution with a Hg-lamp (150 W from Hereus); conditions: irradiated in high dilution with a Hg-lamp (150 W)
Description: A 100 ml three necked reaction flask equipped with a thermometer, a reflux condenser, and a magnetic stirrer under nitrogen atmosphere was charged with 1.1 g (5 mmol) of 4-(2-ethyl-hexyloxy)-phenylamine (Example 1b), 1.06 g (5 mmol) of 1,3-diisopropyl-pyrimidine-2,4,6-trione (Example 1c) and 11.1 g (75 mmol) of triethyl orthoformate in 10 ml of tetrahydrofuran. This mixture was refluxed for 18 hours followed by washing twice with water, dried with Na2SO4, and concentrated on a rotary evaporator. The raw product was recrystallized in ethanol to yield 0.84 g of yellowish crystals. M.p. 74-76° C., UV 355 nm (32,122).

| SMILES | UV absorption maximum [1] | UV extinction (ε) at absorption maximum [1] | solubility in Crodamol DA (diisopropyl adipate) [2] | solubility in Cétiol LC (cocoyl caprylate caprate) [2] | photostability [3] |
| --- | --- | --- | --- | --- | --- |
| CCCCCCCC(=O)Oc1ccc(NC=C2C(=O)N(C(C)C)C(=O)N(C(C)C)C2=O)cc1 [Example 8, 5-{(4-Capryloxy-phenylamine)-methylene}-1,3-diisopropyl-pyrimidine-2,4,6-trione] | 346 nm | 33,768 | 18.5% | 6.6% | photostable |
| CC(C)N1C(=O)C(=CNc2ccc(O)cc2)C(=O)N(C(C)C)C1=O [Example 6, 5-{(4-Hydroxy-phenylamine)-methylene}-1,3-diisopropyl-pyrimidine-2,4,6-trione] | 351 nm | 27,911 | 3.6% |  | photostable |
| CCCCCCCC(=O)Oc1ccc(NC=C2C(=O)N(C(C)C)C(=O)N(C(C)C)C2=O)c(OC(=O)CCCCCCC)c1 [Example 9 diester] | 351 nm | 31,349 |  | easily mixable with Cétiiol LC in any proportion |  |
| C#CCOc1ccc(NC=C2C(=O)N(C(C)C)C(=O)N(C(C)C)C2=O)cc1 [Example 2, 5-{(4-Propargyloxy-phenylamine)-methylene}-1,3-diisopropyl-pyrimidine-2,4,6-trione] | 352 nm | 31,596 |  |  | photostable |
| CCCCC(CC)COc1ccc(NC=C2C(=O)N(C(C)C)C(=O)N(C(C)C)C2=O)cc1 (stereo not shown) [Example 1, 5-{[4-(2-Ethyl-hexyloxy)-phenylamine]-methylene}-1,3-diisopropyl-pyrimidine-2,4,6-trione] | 355 nm | 32,122 | 26.9% | 15.5% | photostable |
| C=C(COc1ccc(NC=C2C(=O)N(C(C)C)C(=O)N(C(C)C)C2=O)cc1)[Si](C)(O[Si](C)(C)C)O[Si](C)(C)C [Example 3, 5-{[4-(2-(1,3,3,3-tetramethyl-1-[(trimethylsilyl)-oxy]-disiloxanyl)-prop-2-enyloxy)-phenylamine]-methylene}-1,3-diisopropyl-pyrimidine-2,4,6-trione] | 354 nm | 31,520 | unlimited | unlimited | excellent |
| CCCCCCCC(=O)Oc1ccc(NC=C2C(=O)N(C(C)C)C(=O)N(C(C)C)C2=O)c(O)c1 [5-{[(2-hydroxy-4-capryloxy)-phenylamine])-methylene}-1,3-diisopropyl-pyrimidine-2,4,6-trione] | 354 nm | 25,813 |  |  |  |
| CC(C)N1C(=O)C(=CNc2ccc(O)cc2O)C(=O)N(C(C)C)C1=O [Example 7, 5-{(2,4-Dihydroxy-phenylamine)-methylene}-1,3-diisopropyl-pyrimidine-2,4,6-trione] | 363 nm | 23,564 | 4.1% |  | photostable |
